Data as given in US4349545A, “Novel erythromycin a derivatives” (Roussel Uclaf, priority 1980, dated 1982).
Values after ≈ are worked out from the molar mass of the structure shown.

Key:
[1] = tested on: Staphylococcus aureus No. 54,146; experiment: In vivo activity in mice experimentally infected with Staphylococcus aureus No. 54,146; conditions: groups of 10 mice
Procedure: The test was effected with the compounds of the invention and erythromycin as a reference on groups of 10 mice weighing about 21 g experimentally infected with Staphylococcus aureus No. 54,146 by intraperitoneal administration of 0.5 ml of a 22 hour culture of the said organism in bouillon with a pH of 7 diluted to 1/6 with physiological water. The test compounds were orally administrated to the mice 1,5 and 24 hours after the infection and the mortality on the 8th day was determined.

[2] = tested on: Streptococcus pyogenes A 561; experiment: serial dilution liquid medium MIC, Streptococcus pyogenes A 561; assay type: cell-based; conditions: A561, 24 hours at 37° C., read-out: minimum inhibiting concentration (MIC)
Procedure: (§1) The method was a serial dilution of liquid medium test wherein a series of tubes were prepared containing the same amount of sterile nutritive medium and increasing amounts of the test product was distributed in each tube. The tubes were then seeded with a bacterial strain and incubated for 24 hours in an oven at 37° C. The degree of inhibition was determined by transillumination to determine the minimum inhibiting concentration (MIC) express in μg/ml and the results are reported in the following Tables.

[3] = tested on: Streptococcus faecalis 5432; experiment: serial dilution liquid medium MIC, Streptococcus faecalis 5432; assay type: cell-based; conditions: Enterococcus faecalis, 24 hours at 37° C., read-out: minimum inhibiting concentration (MIC)
Procedure: as §1

[4] = tested on: Staphylococcus aureus 1061; experiment: serial dilution liquid medium MIC, Staphylococcus aureus 1061 pen-sensibles; assay type: cell-based; conditions: 24 hours at 37° C., read-out: minimum inhibiting concentration (MIC)
Procedure: as §1

[5] = tested on: Streptococcus faecalis 5435; experiment: serial dilution liquid medium MIC, Streptococcus faecalis 5435; assay type: cell-based; conditions: Enterococcus faecalis, 24 hours at 37° C., read-out: minimum inhibiting concentration (MIC)
Procedure: as §1

[6] = tested on: Staphylococcus aureus UC 1128; experiment: serial dilution liquid medium MIC, Staphylococcus aureus UC 1128 pen-resistant; assay type: cell-based; conditions: UC1128; Staphylococcus aureus UC 1128 pen-resistant; 24 hours at 37° C.; read-out: minimum inhibiting concentration (MIC)
Procedure: as §1

[7] = tested on: Streptococcus faecalis 99 F 74; experiment: serial dilution liquid medium MIC, Streptococcus faecalis 99 F 74; assay type: cell-based; conditions: Enterococcus faecalis, 99F74, 24 hours at 37° C., read-out: minimum inhibiting concentration (MIC)
Procedure: as §1

[8] = tested on: Staphylococcus aureus exp. n° 54 146; experiment: serial dilution liquid medium MIC, Staphylococcus aureus exp. n° 54 146; assay type: cell-based; conditions: Staphylococcus aureus exp. 54 146; 24 hours at 37° C.; read-out: minimum inhibiting concentration (MIC)
Procedure: as §1

[9] = dose 0,75mg oral, 1,5 and 24 hours after infection

Structure (SMILES)	No. of mice living on the 8th day [1, 9]	No. of mice living on the 8th day ([1]; dose 1mg oral, 1,5 and 24 hours after infection)	No. of mice living on the 8th day ([1]; dose 2mg oral, 1,5 and 24 hours after infection)	No. of mice living on the 8th day ([1]; dose 1,5mg oral, 1,5 and 24 hours after infection)	MIC [2]	MIC [3]	MIC [4]	MIC [5]	MIC [6]	MIC [7]	MIC [8]	No. of mice living on the 8th day ([1]; dose 0,5mg oral, 1,5 and 24 hours after infection)	No. of mice living on the 8th day ([1]; dose 0,25mg oral, 1,5 and 24 hours after infection)
CC[C@H]1OC(=O)[C@H](C)[C@@H](O[C@H]2C[C@@](C)(OC)[C@@H](O)[C@H](C)O2)[C@H](C)[C@@H](O[C@@H]2O[C@H](C)C[C@H](N(C)C)[C@H]2O)[C@](C)(O)C[C@@H](C)C(=O)[C@H](C)[C@@H](O)[C@]1(C)O [Erythromycin, erythromycin]	5 mice	9 mice	10 mice	9 mice	–	–	–	–	–	–	–	–	–
CCSCCON=C1[C@H](C)C[C@@](C)(O)[C@H](O[C@@H]2O[C@H](C)C[C@H](N(C)C)[C@H]2O)[C@@H](C)[C@H](O[C@H]2C[C@@](C)(OC)[C@@H](O)[C@H](C)O2)[C@@H](C)C(=O)O[C@H](CC)[C@@](C)(O)[C@H](O)[C@H]1C [Example 13, 9-[0-(2-ethylthioethyl)-oxime] of erythromycin]	–	–	–	–	0.02 µg/mL (≈ 0.0239 µM)	0.01 µg/mL (≈ 0.0119 µM)	0.4 µg/mL (≈ 0.478 µM)	0.4 µg/mL (≈ 0.478 µM)	0.6 µg/mL (≈ 0.717 µM)	0.1 µg/mL (≈ 0.119 µM)	0.4 µg/mL (≈ 0.478 µM)	–	–
CC[C@H]1OC(=O)[C@H](C)[C@@H](O[C@H]2C[C@@](C)(OC)[C@@H](O)[C@H](C)O2)[C@H](C)[C@@H](O[C@@H]2O[C@H](C)C[C@H](N(C)C)[C@H]2O)[C@](C)(O)C[C@@H](C)C(=NOCCC#N)[C@H](C)[C@@H](O)[C@]1(C)O [Example 14, 9-[0-(2-cyanoethyl)-oxime] of erythromycin]	–	–	–	–	0.02 µg/mL (≈ 0.0249 µM)	0.1 µg/mL (≈ 0.125 µM)	0.2 µg/mL (≈ 0.249 µM)	0.4 µg/mL (≈ 0.499 µM)	0.4 µg/mL (≈ 0.499 µM)	0.05 µg/mL (≈ 0.0623 µM)	0.4 µg/mL (≈ 0.499 µM)	–	–
CCSCC(O)CON=C1[C@H](C)C[C@@](C)(O)[C@H](O[C@@H]2O[C@H](C)C[C@H](N(C)C)[C@H]2O)[C@@H](C)[C@H](O[C@H]2C[C@@](C)(OC)[C@@H](O)[C@H](C)O2)[C@@H](C)C(=O)O[C@H](CC)[C@@](C)(O)[C@H](O)[C@H]1C (stereo partly drawn) [Example 16, 9-[0-(3-ethylthio-2-hydroxy-propyl)-oxime] of erythromycin]	–	–	–	–	0.05 µg/mL (≈ 0.0577 µM)	0.2 µg/mL (≈ 0.231 µM)	0.4 µg/mL (≈ 0.461 µM)	1 µg/mL (≈ 1.15 µM)	0.6 µg/mL (≈ 0.692 µM)	0.1 µg/mL (≈ 0.115 µM)	0.4 µg/mL (≈ 0.461 µM)	–	–
CC[C@H]1OC(=O)[C@H](C)[C@@H](O[C@H]2C[C@@](C)(OC)[C@@H](O)[C@H](C)O2)[C@H](C)[C@@H](O[C@@H]2O[C@H](C)C[C@H](N(C)C)[C@H]2O)[C@](C)(O)C[C@@H](C)C(=NOCCOCCO)[C@H](C)[C@@H](O)[C@]1(C)O [Example 17, 9-[0-(2-{2-hydroxyethoxy}-ethyl)-oxime] of erythromycin]	–	–	–	–	0.05 µg/mL (≈ 0.0597 µM)	0.1 µg/mL (≈ 0.119 µM)	0.4 µg/mL (≈ 0.478 µM)	0.6 µg/mL (≈ 0.717 µM)	0.6 µg/mL (≈ 0.717 µM)	0.1 µg/mL (≈ 0.119 µM)	0.4 µg/mL (≈ 0.478 µM)	–	–
CC[C@H]1OC(=O)[C@H](C)[C@@H](O[C@H]2C[C@@](C)(OC)[C@@H](O)[C@H](C)O2)[C@H](C)[C@@H](O[C@@H]2O[C@H](C)C[C@H](N(C)C)[C@H]2O)[C@](C)(O)C[C@@H](C)C(=NOCOCCCl)[C@H](C)[C@@H](O)[C@]1(C)O [Example 21, 9-[0-{(2-chloroethoxy)-methyl}-oxime] of erythromycin]	10 mice	–	–	–	0.02 µg/mL (≈ 0.0238 µM)	0.1 µg/mL (≈ 0.119 µM)	0.2 µg/mL (≈ 0.238 µM)	–	0.2 µg/mL (≈ 0.238 µM)	0.1 µg/mL (≈ 0.119 µM)	0.2 µg/mL (≈ 0.238 µM)	6 mice	0 mice
CC[C@H]1OC(=O)[C@H](C)[C@@H](O[C@H]2C[C@@](C)(OC)[C@@H](O)[C@H](C)O2)[C@H](C)[C@@H](O[C@@H]2O[C@H](C)C[C@H](N(C)C)[C@H]2O)[C@](C)(O)C[C@@H](C)C(=NOCOCCN(C)C)[C@H](C)[C@@H](O)[C@]1(C)O [Example 22, 9-[0-{(2-dimethylaminoethoxy)-methyl}-oxime] of erythromycin]	–	–	–	–	≤ 0.01 µg/mL	0.05 µg/mL (≈ 0.0588 µM)	0.4 µg/mL (≈ 0.471 µM)	0.2 µg/mL (≈ 0.235 µM)	0.6 µg/mL (≈ 0.706 µM)	0.05 µg/mL (≈ 0.0588 µM)	0.4 µg/mL (≈ 0.471 µM)	–	–
